According to patent US20140234345A1, “NOVEL ANTI-CANCER ISOC[…] CONJUGATES” (priority 2011, published 2014):

Tests used:
[1] = system: cervical tumour cell line; experiment: In vitro tumour cell line testing, cervical; type: cell-based; details: for effect on cervical tumour cell line: after 48 hours
Experimental: (§1) A549 (CCL-185), BxPC-3 (CRL-1687), HeLa (CCL-2), LoVo (CCL-229), MCF-7 (HTB-22), and PC-3 (CRL-1435) cells were purchased from ATCC (Manassas, Va.). Alamar Blue was purchased from Invitrogen Canada Inc. (Burlington, ON). All other tissue culture and reagent grade materials were purchased from either VWR (Mississauga, ON) or Sigma Aldrich (Oakville, ON).
(§2) All cell lines were maintained at 37° C. in a CO2 cell culture incubator with 5% CO2 and 95% humidity. A549, Lovo, and PC-3 cells were cultured in F-12K media, BxPC-3 cells were culture in RPMI-1640 media, and HeLa and MCF-7 cells were cultured in Eagle's Minimum Essential Media (MEM) with […]. All cell culture media was supplemented with 10% fetal bovine serum (FBS), […] Penicillin, 0.1 mg/mL Streptomycin, 2.5 μg/mL Amphotericin B, and 50 μg/mL Gentamycin. In addition, MEM media for MCF-7 cells also contained 0.01 mg/mL bovine insulin.

[2] = system: colorectal tumour cell line; experiment: In vitro tumour cell line testing, colorectal; type: cell-based; details: for effect on colorectal tumour cell line: after 48 hours
Experimental: as §1, §2

[3] = Cell viability of healthy PBMC
Experimental: (§3) All cell lines were plated in black, tissue culture treated, 96 well plates at a cell density of 1×10^5 celis/mL (1×10^4 cells/well). Cells were allowed 24 h to attach to the plate prior to being dosed with drug. […] Cells were allowed to incubate for 48 or 72 h. Following incubation cells were stained with Alamar Blue such that the final concentration of Alamar Blue in the test well was 10%. Cells were stained for 2 h and then fluorescence was measured on a Molecular Devices Analyst GT multimode plate reader using an excitation filter of 530/25 nm and an emission filter of 580/10 nm and a 561 nm dichroic mirror. Cell viability was expressed as a percentage of untreated control cells. Data are expressed as mean±standard error and are the average of four independent cell preparations.
(§4) Healthy PBMC (Peripheral Blood Mononuclear Cells) were treated similarly to the above tumour cell line tests.

[4] = system: Healthy PBMC (Peripheral Blood Mononuclear Cells); experiment: Cell viability of healthy PBMC
Experimental: as §3, §4

[5] = I(a) concentration in Cremophor EL:ethanol composition (HPLC); type: physicochemical; details: 1:60 w/w I(a):CrEL, ethanol 1:1 v/v to CrEL, room temperature
Experimental: One to sixty (1:60) ratio by weight of compound I(a) to CrEL was mixed into a glass vial and stirred for about one hour at room temperature to allow solubilization. Dehydrated ethanol USP was then added at a ratio (v/v) one to one (1:1) to CrEL. The mixture was stirred for half hour to ensure the dissolution of the mixture. The final solution was then tested by HPLC to verify compound I(a) concentration.

lung tumour cells = experiment: In vitro tumour cell line testing, lung; type: cell-based; details: after 72 hours
Experimental: as §1, §2

[6] = Amount of I(a) dissolved in Vitamin E TPGS composition (HPLC assay of centrifugate); type: physicochemical; details: 15:100 w/w I(a):Vitamin E TPGS, 45° C., water 8 ml per 100 mg Vitamin E, centrifuged
Experimental: A stir bar was then added and the solution was continuously mixed while at 45° C. for a minimum of 2 hours to allow full saturation of the product. […] The mixture was then cooled to room temperature, and centrifuged to separate the undissolved material. The centrifugate was assayed for the amount of compound I(a) using HPLC.

[7] = system: prostate tumour cell line; experiment: In vitro tumour cell line testing, prostate; type: cell-based; details: for effect on prostate tumour cell line: after 48 hours
Experimental: as §1, §2

[8] = system: pancreas tumour cell line; experiment: In vitro tumour cell line testing, pancreas; type: cell-based; details: for effect on pancreas tumour cell line: after 48 hours
Experimental: as §1, §2

[9] = system: A549, BxPC-3, HeLa, LoVo, MCF-7 and PC-3 cells; experiment: In vitro testing on various tumour cell lines (Alamar Blue cell viability); type: cell-based; details: after 48 hours
Experimental: as §1, §2

Structure (SMILES)	effect on cervical tumour cell line [1]	results on cervical tumour cells ([1]; after 72 hours)	effect on colorectal tumour cell line [2]	effect against colorectal cancer ([2]; after 72 hours)	viability [3] [%]	viability at 2.265 µM [3] [%]	selectivity for cancer cells over healthy cells ([4]; PBMC tests compared to tumour cell line tests)	PBMC cell death compared to narciclasine ([4]; in DMSO, 48 and 72 hours)	amount of I(a) contained in resultant formulation [5] [mg/mL]	results on lung tumour cells (lung tumour cells)	amount of I(a) contained in resultant formulation [6] [mg/mL]	effect on prostate tumour cell line [7]	results on prostate tumour cells ([7]; after 72 hours)	effect on pancreas tumour cell line [8]	effect against pancreas cancer ([8]; after 72 hours)	anti-cancer effect against a wide variety of cancers [9]
CC/C=C\C/C=C\C/C=C\C/C=C\C/C=C\C/C=C\CCC(=O)O[C@H]1C=C2c3cc4c(c(O)c3C(=O)N[C@H]2[C@H](O)[C@@H]1O)OCO4 [Compound I(a), Narciclasine 2-Hydroxy DHA Conjugate]	strong effect	good results	strong effect	works well	~90	> 60	selectively kill cancer cells at a much higher percentage than healthy cells	small increase of cell death	9.9	good results	1.8 to 1.9	strong effect	good results	strong effect	works well	strong anti-cancer effect
O=C1N[C@@H]2C(=C[C@H](O)[C@@H](O)[C@H]2O)c2cc3c(c(O)c21)OCO3 [narciclasine, reference compound]	strong effect	–	strong effect	–	–	–	–	–	–	–	–	strong effect	–	strong effect	–	strong anti-cancer effect
